Source: article PMC5218480 (PLoS ONE, 2017)

Test system: MV-4-11 cells
Experiment: Gene expression microarray analysis (Affymetrix PrimeView) and GSEA
Type: cell-based, human
Set-up: RFU PODN (11730768_x_at) / Fold change /veh PODN (11730768_x_at) / RFU LINC00158 (11744669_a_at) / Fold change /veh LINC00158 (11744669_a_at) / RFU DUSP10 (11751237_a_at) / Fold change /veh DUSP10 (11751237_a_at) / RFU ID3 (11757404_x_at) / Fold change /veh ID3 (11757404_x_at) / RFU PLEKHG5 (11737974_s_at) / Fold change /veh PLEKHG5 (11737974_s_at) / RFU LRRC4B (11730491_at) / Fold change /veh LRRC4B (11730491_at) / RFU GIMAP4 (11747438_a_at) / Fold change /veh GIMAP4 (11747438_a_at) / RFU KRT8 (11758183_x_at) / Fold change /veh KRT8 (11758183_x_at) / RFU CNN1 (11734310_a_at) / Fold change /veh CNN1 (11734310_a_at) / RFU VPS37D (11726825_at) / Fold change /veh VPS37D (11726825_at) / RFU C10orf10 (11716522_x_at) / Fold change /veh C10orf10 (11716522_x_at) / RFU KIR2DL2 /// KIR2DL4 /// KIR2DL5A /// KIR2DL5B /// KIR2DS1 /// KIR2DS2 /// KIR2DS3 /// KIR2DS4 /// KIR3DL3 /// KIR3DL3 /// KIR3DS1 (11738374_at) / Fold change /veh KIR2DL2 /// KIR2DL4 /// KIR2DL5A /// KIR2DL5B /// KIR2DS1 /// KIR2DS2 /// KIR2DS3 /// KIR2DS4 /// KIR3DL3 /// KIR3DL3 /// KIR3DS1 (11738374_at) / RFU C1QL1 (11718748_at) / Fold change /veh C1QL1 (11718748_at) / RFU TMPRSS4 (11747572_a_at) / Fold change /veh TMPRSS4 (11747572_a_at) / RFU HAMP (11756126_x_at) / Fold change /veh HAMP (11756126_x_at) / RFU RNFT2 (11725882_a_at) / Fold change /veh RNFT2 (11725882_a_at) / RFU NR4A2 (11747474_a_at) / Fold change /veh NR4A2 (11747474_a_at) / RFU ABCC12 (11746883_a_at) / Fold change /veh ABCC12 (11746883_a_at) / RFU TMEM136 (11760407_x_at) / Fold change /veh TMEM136 (11760407_x_at) / RFU CLDN22 /// WWC2 (11732394_at) / Fold change /veh CLDN22 /// WWC2 (11732394_at) / RFU HLA-DPB1 (11760878_x_at) / Fold change /veh HLA-DPB1 (11760878_x_at) / RFU SPINT1 (11716480_a_at) / Fold change /veh SPINT1 (11716480_a_at) / RFU GAP43 (11754022_s_at) / Fold change /veh GAP43 (11754022_s_at) / RFU A4GNT (11735810_at) / Fold change /veh A4GNT (11735810_at) / RFU PRB3 (11715151_x_at) / Fold change /veh PRB3 (11715151_x_at) / RFU TUBB4B (11761932_at) / Fold change /veh TUBB4B (11761932_at) / RFU CAPN14 (11732068_a_at) / Fold change /veh CAPN14 (11732068_a_at) / RFU TMCC2 (11721928_a_at) / Fold change /veh TMCC2 (11721928_a_at) / RFU IRGQ (11745062_a_at) / Fold change /veh IRGQ (11745062_a_at) / RFU FAM174B (11720279_a_at) / Fold change /veh FAM174B (11720279_a_at) / RFU TMPRSS4 (11748680_a_at) / Fold change /veh TMPRSS4 (11748680_a_at) / RFU FAM212B (11763350_a_at) / Fold change /veh FAM212B (11763350_a_at) / RFU PLEKHG5 (11743358_a_at) / Fold change /veh PLEKHG5 (11743358_a_at) / RFU ZSCAN30 (11745921_a_at) / Fold change /veh ZSCAN30 (11745921_a_at) / RFU CMKLR1 (11741424_a_at) / Fold change /veh CMKLR1 (11741424_a_at) / RFU LOC101060620 /// MAPK8IP1 (11723275_at) / Fold change /veh LOC101060620 /// MAPK8IP1 (11723275_at) / RFU SPTSSB (11747773_x_at) / Fold change /veh SPTSSB (11747773_x_at) / RFU PRSS12 (11739890_at) / Fold change /veh PRSS12 (11739890_at) / RFU BIN1 (11741810_x_at) / Fold change /veh BIN1 (11741810_x_at) / RFU WNT11 (11732464_a_at) / Fold change /veh WNT11 (11732464_a_at) / RFU C10orf10 (11716521_a_at) / Fold change /veh C10orf10 (11716521_a_at) / RFU C5orf56 (11738089_at) / Fold change /veh C5orf56 (11738089_at) / RFU CYB561 (11721691_x_at) / Fold change /veh CYB561 (11721691_x_at) / RFU ANKRD19P (11752326_a_at) / Fold change /veh ANKRD19P (11752326_a_at) / RFU OR2T12 /// OR2T33 /// OR2T8 (11738714_s_at) / Fold change /veh OR2T12 /// OR2T33 /// OR2T8 (11738714_s_at) / RFU VCAN (11748164_a_at) / Fold change /veh VCAN (11748164_a_at) / RFU JSRP1 (11732532_at) / Fold change /veh JSRP1 (11732532_at) / RFU KRTAP10-11 (11738290_x_at) / Fold change /veh KRTAP10-11 (11738290_x_at) / RFU MYO3A (11730013_a_at) / Fold change /veh MYO3A (11730013_a_at) / RFU EBF3 (11725865_a_at) / Fold change /veh EBF3 (11725865_a_at) / RFU CAMK2N1 (11719241_x_at) / Fold change /veh CAMK2N1 (11719241_x_at) / RFU C5orf56 (11738088_a_at) / Fold change /veh C5orf56 (11738088_a_at) / RFU OLFML3 (11715873_a_at) / Fold change /veh OLFML3 (11715873_a_at) / RFU LOC100653217 /// NTM (11731650_a_at) / Fold change /veh LOC100653217 /// NTM (11731650_a_at) / RFU MAPK11 (11762145_a_at) / Fold change /veh MAPK11 (11762145_a_at) / RFU FIZ1 (11724087_x_at) / Fold change /veh FIZ1 (11724087_x_at) / RFU OASL (11726364_x_at) / Fold change /veh OASL (11726364_x_at) / RFU SOX15 (11748057_x_at) / Fold change /veh SOX15 (11748057_x_at) / RFU CD79A (11719716_a_at) / Fold change /veh CD79A (11719716_a_at) / RFU HIST1H1D (11736915_at) / Fold change /veh HIST1H1D (11736915_at) / RFU CASKIN2 (11723855_a_at) / Fold change /veh CASKIN2 (11723855_a_at) / RFU LOC730098 (11760151_x_at) / Fold change /veh LOC730098 (11760151_x_at) / RFU OR4N2 (11742367_at) / Fold change /veh OR4N2 (11742367_at) / RFU PRRT2 (11749266_a_at) / Fold change /veh PRRT2 (11749266_a_at) / RFU SNX32 (11753110_a_at) / Fold change /veh SNX32 (11753110_a_at) / RFU CDHR5 (11726645_a_at) / Fold change /veh CDHR5 (11726645_a_at) / RFU RCAN1 (11760418_a_at) / Fold change /veh RCAN1 (11760418_a_at) / RFU FAM167A (11723789_a_at) / Fold change /veh FAM167A (11723789_a_at) / RFU FAM26E (11764081_at) / Fold change /veh FAM26E (11764081_at) / RFU ISYNA1 (11749810_s_at) / Fold change /veh ISYNA1 (11749810_s_at) / RFU ACY1 (11761880_at) / Fold change /veh ACY1 (11761880_at) / RFU 11764098_at / Fold change /veh 11764098_at / RFU SAMD14 (11745864_x_at) / Fold change /veh SAMD14 (11745864_x_at) / RFU NPB (11741838_a_at) / Fold change /veh NPB (11741838_a_at) / RFU TMPRSS6 (11731388_a_at) / Fold change /veh TMPRSS6 (11731388_a_at) / RFU KRTAP10-2 (11738614_at) / Fold change /veh KRTAP10-2 (11738614_at) / RFU ARHGAP8 /// PRR5-ARHGAP8 (11727945_x_at) / Fold change /veh ARHGAP8 /// PRR5-ARHGAP8 (11727945_x_at) / RFU KRTAP5-7 /// NADSYN1 (11734609_at) / Fold change /veh KRTAP5-7 /// NADSYN1 (11734609_at) / RFU RASL12 (11751679_a_at) / Fold change /veh RASL12 (11751679_a_at) / RFU CDKN2B (11736163_a_at) / Fold change /veh CDKN2B (11736163_a_at) / RFU PRF1 (11729649_at) / Fold change /veh PRF1 (11729649_at) / RFU, ZNF638 /// ZNF638-IT1 / Fold change vs veh, ZNF638 /// ZNF638-IT1 / RFU, PANK3 / Fold change vs veh, PANK3 / RFU, SH3YL1 / Fold change vs veh, SH3YL1 / RFU, ZEB2 / Fold change vs veh, ZEB2 / RFU, NRIP1 / Fold change vs veh, NRIP1 / RFU, PTTG1IP / Fold change vs veh, PTTG1IP / RFU, CAPN2 / Fold change vs veh, CAPN2 / RFU, MED14 / Fold change vs veh, MED14 / RFU, SNORA58 / Fold change vs veh, SNORA58 / RFU, C1orf63 / Fold change vs veh, C1orf63 / RFU, LRRFIP1 / Fold change vs veh, LRRFIP1 / RFU, NDUFAF7 / Fold change vs veh, NDUFAF7 / RFU, SLC12A2 / Fold change vs veh, SLC12A2 / RFU, IBTK / Fold change vs veh, IBTK / RFU, ESF1 / Fold change vs veh, ESF1 / Fold change vs veh, TMEM50B / RFU, TAOK1 / Fold change vs veh, TAOK1 / RFU, ACBD3 / Fold change vs veh, ACBD3 / RFU, TMA16 / Fold change vs veh, TMA16 / RFU, RWDD3 / Fold change vs veh, RWDD3 / RFU, BCAT1 / Fold change vs veh, BCAT1 / RFU, EDEM3 / Fold change vs veh, EDEM3 / RFU, TMEM33 / Fold change vs veh, TMEM33 / RFU, WDR75 / Fold change vs veh, WDR75 / RFU, AHCTF1 / Fold change vs veh, AHCTF1 / RFU, TFRC / Fold change vs veh, TFRC / RFU, ZDHHC17 / Fold change vs veh, ZDHHC17 / RFU, NOM1 / Fold change vs veh, NOM1 / RFU, ARL8B / Fold change vs veh, ARL8B / RFU, ZBTB11 / Fold change vs veh, ZBTB11 / RFU, TAMM41 / Fold change vs veh, TAMM41 / RFU, KIAA1704 /// LOC100996395 / Fold change vs veh, KIAA1704 /// LOC100996395 / RFU, ING1 / Fold change vs veh, ING1 / RFU, TRMT61B / Fold change vs veh, TRMT61B / RFU, FUBP3 / Fold change vs veh, FUBP3 / RFU, TP53 / Fold change vs veh, TP53 / RFU, TNKS2 / Fold change vs veh, TNKS2 / RFU, ZFP14 / Fold change vs veh, ZFP14 / RFU, ACTR2 / Fold change vs veh, ACTR2 / RFU, PPP3R1 / Fold change vs veh, PPP3R1 / RFU, PIK3R1 / Fold change vs veh, PIK3R1 / RFU, HNRNPA1 / Fold change vs veh, HNRNPA1 / RFU, RNF170 / Fold change vs veh, RNF170 / RFU, ZNF28 / Fold change vs veh, ZNF28 / RFU, RNGTT / Fold change vs veh, RNGTT / RFU, OGT / Fold change vs veh, OGT / RFU, BRD1 / Fold change vs veh, BRD1 / RFU, MARS / Fold change vs veh, MARS / RFU, ZNF655 / Fold change vs veh, ZNF655 / RFU, FAHD1 / Fold change vs veh, FAHD1 / RFU, BDP1 / Fold change vs veh, BDP1 / RFU, LRRCC1 / Fold change vs veh, LRRCC1 / RFU, ARID1A / Fold change vs veh, ARID1A / RFU, ZNF146 / Fold change vs veh, ZNF146 / RFU, ZNF330 / Fold change vs veh, ZNF330 / RFU, GPN3 / Fold change vs veh, GPN3 / RFU, C9orf123 / Fold change vs veh, C9orf123 / RFU, N4BP2L2 / Fold change vs veh, N4BP2L2 / RFU, ARFIP1 / Fold change vs veh, ARFIP1 / RFU, FAM179B / Fold change vs veh, FAM179B / RFU, BCL10 / Fold change vs veh, BCL10 / RFU, UHRF1BP1L / Fold change vs veh, UHRF1BP1L / RFU, BET1 / Fold change vs veh, BET1 / RFU, CNOT2 / Fold change vs veh, CNOT2 / RFU, ZNF268 / Fold change vs veh, ZNF268 / Fold change vs veh, ZNF507 / RFU, DGCR2 / Fold change vs veh, DGCR2 / RFU, WDSUB1 / Fold change vs veh, WDSUB1 / Fold change vs veh, HSP90B1 /// MIR3652 / RFU, ADSS / Fold change vs veh, ADSS / RFU, GK / Fold change vs veh, GK / RFU, ZNF148 / Fold change vs veh, ZNF148 / RFU, TAF9 / Fold change vs veh, TAF9 / RFU, SLC1A5 / Fold change vs veh, SLC1A5 / RFU, SLMO2 / Fold change vs veh, SLMO2 / RFU, ABCC4 / Fold change vs veh, ABCC4 / RFU, LOC101060439 /// RAP1B / Fold change vs veh, LOC101060439 /// RAP1B / RFU, RFX7 / Fold change vs veh, RFX7 / RFU, GTPBP10 / Fold change vs veh, GTPBP10 / RFU, CNEP1R1 / Fold change vs veh, CNEP1R1 / RFU, BIVM-ERCC5 /// ERCC5 / Fold change vs veh, BIVM-ERCC5 /// ERCC5 / RFU, ILF3 / Fold change vs veh, ILF3 / RFU 11762660_at / Fold change /veh 11762660_at / RFU VCAN (11757783_s_at) / Fold change /veh VCAN (11757783_s_at) / RFU DDX43 (11728927_at) / Fold change /veh DDX43 (11728927_at) / RFU KRT8 (11758188_x_at) / Fold change /veh KRT8 (11758188_x_at) / RFU NKD1 (11759106_at) / Fold change /veh NKD1 (11759106_at) / RFU SRD5A1 (11742802_a_at) / Fold change /veh SRD5A1 (11742802_a_at) / RFU TPSAB1 /// TPSB2 (11721975_s_at) / Fold change /veh TPSAB1 /// TPSB2 (11721975_s_at) / RFU GSTM3 (11746129_a_at) / Fold change /veh GSTM3 (11746129_a_at) / RFU IL23R (11737362_x_at) / Fold change /veh IL23R (11737362_x_at) / RFU TMEM51 (11727254_a_at) / Fold change /veh TMEM51 (11727254_a_at) / RFU PIWIL2 (11732686_x_at) / Fold change /veh PIWIL2 (11732686_x_at) / RFU ORM1 (11744905_x_at) / Fold change /veh ORM1 (11744905_x_at) / RFU CCDC152 (11743942_at) / Fold change /veh CCDC152 (11743942_at) / RFU ECM1 (11717891_a_at) / Fold change /veh ECM1 (11717891_a_at) / RFU IL23R (11748794_a_at) / Fold change /veh IL23R (11748794_a_at) / RFU TNFAIP8L3 (11732012_x_at) / Fold change /veh TNFAIP8L3 (11732012_x_at) / RFU MBOAT4 (11741988_at) / Fold change /veh MBOAT4 (11741988_at) / RFU 11764193_at / Fold change /veh 11764193_at / RFU TMEM53 (11763286_at) / Fold change /veh TMEM53 (11763286_at) / RFU MAGEB2 (11727129_at) / Fold change /veh MAGEB2 (11727129_at) / RFU TMEM200A (11744735_a_at) / Fold change /veh TMEM200A (11744735_a_at) / RFU CCDC152 (11751479_a_at) / Fold change /veh CCDC152 (11751479_a_at) / RFU FAM211A (11726209_a_at) / Fold change /veh FAM211A (11726209_a_at) / RFU RGS16 (11746705_a_at) / Fold change /veh RGS16 (11746705_a_at) / RFU VCAN (11755009_s_at) / Fold change /veh VCAN (11755009_s_at) / RFU RHOB (11743442_s_at) / Fold change /veh RHOB (11743442_s_at) / RFU RGS16 (11720943_a_at) / Fold change /veh RGS16 (11720943_a_at) / RFU RGS16 (11720944_at) / Fold change /veh RGS16 (11720944_at) / RFU, VPS4B / Fold change vs veh, VPS4B / RFU, CREB1 / Fold change vs veh, CREB1 / RFU, DNAJC13 / Fold change vs veh, DNAJC13 / RFU, GNAQ / Fold change vs veh, GNAQ / RFU, CDK5R1 / Fold change vs veh, CDK5R1 / RFU, ZRANB3 / Fold change vs veh, ZRANB3 / RFU, CUL4A / Fold change vs veh, CUL4A / RFU, CCNY / Fold change vs veh, CCNY / RFU, UFL1 / Fold change vs veh, UFL1 / RFU, COG3 / Fold change vs veh, COG3 / RFU, DIAPH2 / Fold change vs veh, DIAPH2 / RFU, SKA2 / Fold change vs veh, SKA2 / RFU, AFF3 / Fold change vs veh, AFF3 / RFU, LMF1 / Fold change vs veh, LMF1 / RFU, IPO11 / Fold change vs veh, IPO11 / RFU, DFFB / Fold change vs veh, DFFB / RFU, FOXP1 / Fold change vs veh, FOXP1 / RFU, CARD8 / Fold change vs veh, CARD8 / RFU, STRN3 / Fold change vs veh, STRN3 / RFU, ADK / Fold change vs veh, ADK / RFU, RASSF2 / Fold change vs veh, RASSF2 / RFU, WIPF1 / Fold change vs veh, WIPF1 / RFU, LARP1B / Fold change vs veh, LARP1B / RFU, RASA1 / Fold change vs veh, RASA1 / RFU, RB1 / Fold change vs veh, RB1 / RFU, PPFIA1 / Fold change vs veh, PPFIA1 / RFU, MAT2A / Fold change vs veh, MAT2A / RFU, CCT5 / Fold change vs veh, CCT5 / RFU, WDR92 / Fold change vs veh, WDR92 / RFU, CUX1 / Fold change vs veh, CUX1 / RFU, TTC7A / Fold change vs veh, TTC7A / RFU, TMEM135 / Fold change vs veh, TMEM135 / RFU, DEPTOR / Fold change vs veh, DEPTOR / RFU, CPM / Fold change vs veh, CPM / RFU, DNAJB6 / Fold change vs veh, DNAJB6 / RFU, CACNA2D3 / Fold change vs veh, CACNA2D3 / RFU, DTX4 / Fold change vs veh, DTX4 / RFU, TFCP2 / Fold change vs veh, TFCP2 / RFU, GMCL1 /// GMCL1P1 / Fold change vs veh, GMCL1 /// GMCL1P1 / RFU, AEBP2 / Fold change vs veh, AEBP2 / RFU, SNHG1 /// SNORD22 /// SNORD25 /// SNORD26 /// SNORD27 /// SNORD28 /// SNORD29 /// SNORD31 / Fold change vs veh, SNHG1 /// SNORD22 /// SNORD25 /// SNORD26 /// SNORD27 /// SNORD28 /// SNORD29 /// SNORD31 / Fold change (Aza/veh), C12orf56 (ProbeSet 11735607_a_at) / Fold change (ACY-1035/veh), C12orf56 (ProbeSet 11735607_a_at) / Fold change (Aza/veh), FGFR1OP (ProbeSet 11751329_s_at) / Fold change (ACY-1035/veh), FGFR1OP (ProbeSet 11751329_s_at) / Fold change (Aza/veh), VPS36 (ProbeSet 11739960_a_at) / Fold change (ACY-1035/veh), VPS36 (ProbeSet 11739960_a_at) / RFU SYPL1 (11715823_x_at) / Fold change /veh SYPL1 (11715823_x_at) / RFU IGFBP7 (11715501_s_at) / Fold change /veh IGFBP7 (11715501_s_at) / RFU REEP3 (11722064_at) / Fold change /veh REEP3 (11722064_at) / RFU IGLL1 (11728026_x_at) / Fold change /veh IGLL1 (11728026_x_at): dose or concentration left out as unconfirmed
Details: MV-4-11 cells, 48 hours

Nc1ccc(-c2cccs2)cc1NC(=O)c1ccc2c(c1)cc(C1CC1)n2CCN1CCOCC1 [ACY-1035]
Fold change /veh LOC730098 (11760151_x_at): 1.00
